Laboratory results from ChEMBL document CHEMBL1156070, “Functional and biochemical analysis of a key series of ramoplanin analogues” (Bioorg Med Chem Lett, 2009).
pKd: −log10 of the molar value. Values after ≈ are worked out from the molar mass of the structure shown. Active and inactive are the calls of the source. No cut-off for these calls is given here.

Tests used:
[1] = system: Staphylococcus aureus; test: Antibacterial activity against Staphylococcus aureus ATCC 29213 after 24 hrs by microdilution assay; format: functional; details: ATCC 29213, 24 h
[2] = Binding affinity to synthetic lipid 2 analogue fl-LPII
[3] = system: Escherichia coli; test: Inhibition of Escherichia coli PBP1b-mediated lipid 2 incorporation into peptidoglycon at 6 uM

Row | MIC [1] [µg/mL] | pKd [2] | inhibition [3] | Structure (SMILES)
1 | 6.3 (≈ 2.99 µM) | 5.20 | inactive | CC(C)C/C=C/C=C/C(=O)N[C@@H](CC(N)=O)C(=O)N[C@H]1CNC(=O)[C@H](c2ccc(O)c(Cl)c2)NC(=O)[C@@H](C)NC(=O)[C@H](CC(C)C)NC(=O)CNC(=O)[C@H](c2ccc(O)cc2)NC(=O)[C@@H]([C@@H](C)O)NC(=O)[C@H](C)NC(=O)[C@@H](CCCN)NC(=O)[C@H](Cc2ccccc2)NC(=O)[C@H]([C@H](C)O)NC(=O)[C@@H](c2ccc(O)cc2)NC(=O)[C@H](c2ccc(O)cc2)NC(=O)[C@@H]([C@@H](C)O)NC(=O)[C@@H](CCCN)NC(=O)[C@@H](c2ccc(O)cc2)NC1=O
2 | 13 (≈ 6.17 µM) |  | Active | CC(C)C/C=C/C=C/C(=O)N[C@@H](CC(N)=O)C(=O)N[C@H]1CNC(=O)[C@H](c2ccc(O)c(Cl)c2)NC(=O)[C@@H](C)NC(=O)[C@H](CC(C)C)NC(=O)CNC(=O)[C@H](c2ccc(O)cc2)NC(=O)[C@@H]([C@@H](C)O)NC(=O)[C@H](c2ccc(O)cc2)NC(=O)[C@@H](CCCN)NC(=O)[C@H](Cc2ccccc2)NC(=O)[C@H]([C@H](C)O)NC(=O)[C@@H](c2ccc(O)cc2)NC(=O)[C@H](c2ccc(O)cc2)NC(=O)[C@@H]([C@@H](C)O)NC(=O)[C@@H](CCCN)NC(=O)[C@H](C)NC1=O
3 | 0.4 (≈ 0.183 µM) | 7.48 | Active | CC(C)C/C=C/C=C/C(=O)N[C@@H](CC(N)=O)C(=O)N[C@H]1CNC(=O)[C@H](c2ccc(O)c(Cl)c2)NC(=O)[C@@H](C)NC(=O)[C@H](CC(C)C)NC(=O)CNC(=O)[C@H](c2ccc(O)cc2)NC(=O)[C@@H]([C@@H](C)O)NC(=O)[C@H](c2ccc(O)cc2)NC(=O)[C@@H](CCCN)NC(=O)[C@H](Cc2ccccc2)NC(=O)[C@H]([C@H](C)O)NC(=O)[C@@H](c2ccc(O)cc2)NC(=O)[C@H](c2ccc(O)cc2)NC(=O)[C@@H]([C@@H](C)O)NC(=O)[C@@H](CCCN)NC(=O)[C@@H](c2ccc(O)cc2)NC1=O
4 | 33 (≈ 15.3 µM) | 5.27 | inactive | CC(C)C/C=C/C=C/C(=O)N[C@@H](CC(N)=O)C(=O)N[C@H]1CNC(=O)[C@H](c2ccc(O)c(Cl)c2)NC(=O)[C@@H](C)NC(=O)[C@H](CC(C)C)NC(=O)CNC(=O)[C@H](c2ccc(O)cc2)NC(=O)[C@H](C)NC(=O)[C@H](c2ccc(O)cc2)NC(=O)[C@@H](CCCN)NC(=O)[C@H](Cc2ccccc2)NC(=O)[C@H]([C@H](C)O)NC(=O)[C@@H](c2ccc(O)cc2)NC(=O)[C@H](c2ccc(O)cc2)NC(=O)[C@@H]([C@@H](C)O)NC(=O)[C@@H](CCCN)NC(=O)[C@@H](c2ccc(O)cc2)NC1=O
5 | 1.6 (≈ 0.759 µM) | 6.42 | Active | CC(C)C/C=C/C=C/C(=O)N[C@@H](CC(N)=O)C(=O)N[C@H]1CNC(=O)[C@H](c2ccc(O)c(Cl)c2)NC(=O)[C@@H](C)NC(=O)[C@H](CC(C)C)NC(=O)CNC(=O)[C@H](c2ccc(O)cc2)NC(=O)[C@@H]([C@@H](C)O)NC(=O)[C@H](c2ccc(O)cc2)NC(=O)[C@@H](CCCN)NC(=O)[C@H](Cc2ccccc2)NC(=O)[C@H]([C@H](C)O)NC(=O)[C@@H](c2ccc(O)cc2)NC(=O)[C@H](C)NC(=O)[C@@H]([C@@H](C)O)NC(=O)[C@@H](CCCN)NC(=O)[C@@H](c2ccc(O)cc2)NC1=O
6 | 2.4 (≈ 1.11 µM) | 6.35 | Active | CC(C)C/C=C/C=C/C(=O)N[C@@H](CC(N)=O)C(=O)N[C@H]1CNC(=O)[C@H](c2ccc(O)c(Cl)c2)NC(=O)[C@@H](C)NC(=O)[C@H](CC(C)C)NC(=O)CNC(=O)[C@H](c2ccc(O)cc2)NC(=O)[C@@H]([C@@H](C)O)NC(=O)[C@H](c2ccc(O)cc2)NC(=O)[C@@H](CCCN)NC(=O)[C@H](Cc2ccccc2)NC(=O)[C@H]([C@H](C)O)NC(=O)[C@@H](c2ccc(O)cc2)NC(=O)[C@H](c2ccc(O)cc2)NC(=O)[C@@H](C)NC(=O)[C@@H](CCCN)NC(=O)[C@@H](c2ccc(O)cc2)NC1=O
7 | 13 (≈ 6.17 µM) | 5.92 | inactive | CC(C)C/C=C/C=C/C(=O)N[C@@H](CC(N)=O)C(=O)N[C@H]1CNC(=O)[C@H](c2ccc(O)c(Cl)c2)NC(=O)[C@@H](C)NC(=O)[C@H](CC(C)C)NC(=O)CNC(=O)[C@H](c2ccc(O)cc2)NC(=O)[C@@H]([C@@H](C)O)NC(=O)[C@H](c2ccc(O)cc2)NC(=O)[C@@H](CCCN)NC(=O)[C@H](Cc2ccccc2)NC(=O)[C@H]([C@H](C)O)NC(=O)[C@H](C)NC(=O)[C@H](c2ccc(O)cc2)NC(=O)[C@@H]([C@@H](C)O)NC(=O)[C@@H](CCCN)NC(=O)[C@@H](c2ccc(O)cc2)NC1=O

More lines, now with the values behind:

Row | Structure (SMILES) | MIC [1] [µg/mL] | pKd [2] | inhibition [3]
8 | CC(C)C/C=C/C=C/C(=O)N[C@@H](CC(N)=O)C(=O)N[C@H]1CNC(=O)[C@H](c2ccc(O)c(Cl)c2)NC(=O)[C@@H](C)NC(=O)[C@H](CC(C)C)NC(=O)CNC(=O)[C@H](c2ccc(O)cc2)NC(=O)[C@@H]([C@@H](C)O)NC(=O)[C@H](c2ccc(O)cc2)NC(=O)[C@@H](CCCN)NC(=O)[C@H](Cc2ccccc2)NC(=O)[C@H]([C@H](C)O)NC(=O)[C@@H](c2ccc(O)cc2)NC(=O)[C@H](c2ccc(O)cc2)NC(=O)[C@@H]([C@@H](C)O)NC(=O)[C@H](C)NC(=O)[C@@H](c2ccc(O)cc2)NC1=O | 31 (≈ 14.5 µM) | 5.37 | inactive
9 | CC(C)C/C=C/C=C/C(=O)N[C@@H](CC(N)=O)C(=O)N[C@H]1CNC(=O)[C@H](c2ccc(O)c(Cl)c2)NC(=O)[C@@H](C)NC(=O)[C@H](CC(C)C)NC(=O)CNC(=O)[C@H](c2ccc(O)cc2)NC(=O)[C@@H]([C@@H](C)O)NC(=O)[C@H](c2ccc(O)cc2)NC(=O)[C@@H](CCCN)NC(=O)[C@H](Cc2ccccc2)NC(=O)[C@H](C)NC(=O)[C@@H](c2ccc(O)cc2)NC(=O)[C@H](c2ccc(O)cc2)NC(=O)[C@@H]([C@@H](C)O)NC(=O)[C@@H](CCCN)NC(=O)[C@@H](c2ccc(O)cc2)NC1=O | 38 (≈ 17.6 µM) | 5.06 | inactive
10 | CC(C)C/C=C/C=C/C(=O)N[C@@H](CC(N)=O)C(=O)N[C@@H]1C(=O)N[C@H](c2ccc(O)cc2)C(=O)N[C@H](CCCN)C(=O)N[C@H]([C@@H](C)O)C(=O)N[C@@H](c2ccc(O)cc2)C(=O)N[C@H](c2ccc(O)cc2)C(=O)N[C@@H]([C@H](C)O)C(=O)N[C@@H](Cc2ccccc2)C(=O)N[C@H](CCCN)C(=O)N[C@@H](c2ccc(O)cc2)C(=O)N[C@H]([C@@H](C)O)C(=O)N[C@@H](c2ccc(O)cc2)C(=O)NCC(=O)N[C@@H](CC(C)C)C(=O)N[C@H](C)C(=O)N[C@@H](c2ccc(O)c(Cl)c2)C(=O)O[C@@H]1C(N)=O [RAMOPLANIN AGLYCON] | 0.4 (≈ 0.179 µM) | 7.40 | Active
11 | CC(C)C/C=C/C=C/C(=O)N[C@@H](CC(N)=O)C(=O)N[C@H]1CNC(=O)[C@H](c2ccc(O)c(Cl)c2)NC(=O)[C@@H](C)NC(=O)[C@H](CC(C)C)NC(=O)CNC(=O)[C@H](c2ccc(O)cc2)NC(=O)[C@@H]([C@@H](C)O)NC(=O)[C@H](c2ccc(O)cc2)NC(=O)[C@@H](CCCN)NC(=O)C(C)NC(=O)[C@H]([C@H](C)O)NC(=O)[C@@H](c2ccc(O)cc2)NC(=O)[C@H](c2ccc(O)cc2)NC(=O)[C@@H]([C@@H](C)O)NC(=O)[C@@H](CCCN)NC(=O)[C@@H](c2ccc(O)cc2)NC1=O (single isomer, unassigned) | 1.6 (≈ 0.758 µM) | 6.42 | Active
12 | CC(C)C/C=C/C=C/C(=O)N[C@@H](CC(N)=O)C(=O)N[C@H]1CNC(=O)[C@H](c2ccc(O)c(Cl)c2)NC(=O)[C@@H](C)NC(=O)[C@H](CC(C)C)NC(=O)CNC(=O)[C@H](c2ccc(O)cc2)NC(=O)[C@@H]([C@@H](C)O)NC(=O)[C@H](c2ccc(O)cc2)NC(=O)C(C)NC(=O)[C@H](Cc2ccccc2)NC(=O)[C@H]([C@H](C)O)NC(=O)[C@@H](c2ccc(O)cc2)NC(=O)[C@H](c2ccc(O)cc2)NC(=O)[C@@H]([C@@H](C)O)NC(=O)[C@@H](CCCN)NC(=O)[C@@H](c2ccc(O)cc2)NC1=O (single isomer, unassigned) | > 50 | 5.19 | inactive
